Values quoted from earlier work in patent EP2085120A1, “The use of substances for the treatment of central or peripheral insulin receptor impairment and insulin resistance” (Merz Pharma GmbH & Co. KGaA, priority 2008, dated 2009).

Tested on: cultured hippocampal and cortical neurons
Conditions: cultured hippocampal and cortical neurons pretreated with ADDLs or ADDL/glutamate; addition of an NMDA receptor antagonist

**Q.** For CC12CC3CC(C)(C1)CC(N)(C3)C2 [memantine], which “ADDL and glutamate-induced decreased insulin sensitivity” value is on record?
**A.** The value was “reversible”.
